# Laboratory results reported in PubChem BioAssay (NCI).
#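 These data come from cells grown in 96-well plates and exposed to compound for 48 hours at five concentrations. GI50 = concentration required for 50% inhibition of growth. TGI: total growth inhibition.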
# What was measured:
# Experiment in all cases: inhibition of tumour cell growth, NCI panel, 48 h
# HT29 colon = test system: HT29 colon
# MALME-3M melanoma = test system: MALME-3M melanoma
# DU-145 prostate = test system: DU-145 prostate
# T-47D breast = test system: T-47D breast
# UACC-257 melanoma = test system: UACC-257 melanoma
# SK-MEL-2 melanoma = test system: SK-MEL-2 melanoma
# NCI-H460 lung = test system: NCI-H460 lung
# U251 CNS = test system: U251 CNS
# UO-31 renal = test system: UO-31 renal
# LOX IMVI melanoma = test system: LOX IMVI melanoma
# ACHN renal = test system: ACHN renal
# NCI-H522 lung = test system: NCI-H522 lung
# 786-0 renal = test system: 786-0 renal
# HCT-15 colon = test system: HCT-15 colon
# OVCAR-3 ovarian = test system: OVCAR-3 ovarian
# M14 melanoma = test system: M14 melanoma
# CAKI-1 renal = test system: CAKI-1 renal
# PC-3 prostate = test system: PC-3 prostate
# NCI-H23 lung = test system: NCI-H23 lung
# SK-MEL-5 melanoma = test system: SK-MEL-5 melanoma
# UACC-62 melanoma = test system: UACC-62 melanoma
# BT-549 breast = test system: BT-549 breast
# TK-10 renal = test system: TK-10 renal
# SF-268 CNS = test system: SF-268 CNS
# OVCAR-4 ovarian = test system: OVCAR-4 ovarian
# KM12 colon = test system: KM12 colon
# SN12C renal = test system: SN12C renal
# MOLT-4 leukemia = test system: MOLT-4 leukemia
# SNB-75 CNS = test system: SNB-75 CNS
# MDA-MB-231 breast = test system: MDA-MB-231 breast
# SK-OV-3 ovarian = test system: SK-OV-3 ovarian
# HS 578T breast = test system: HS 578T breast
# SF-539 CNS = test system: SF-539 CNS
# HOP-62 NSCLC = test system: HOP-62 NSCLC
# MDA-MB-435 = test system: MDA-MB-435
# SW-620 colon = test system: SW-620 colon
# OVCAR-8 ovarian = test system: OVCAR-8 ovarian
# NCI/ADR-RES ovarian = test system: NCI/ADR-RES ovarian
# OVCAR-5 ovarian = test system: OVCAR-5 ovarian
# EKVX NSCLC = test system: EKVX NSCLC
# HCT-116 colon = test system: HCT-116 colon
# SF-295 CNS = test system: SF-295 CNS
# MCF7 breast = test system: MCF7 breast
# SK-MEL-28 melanoma = test system: SK-MEL-28 melanoma
# RPMI-8226 leukemia = test system: RPMI-8226 leukemia
# K-562 leukemia = test system: K-562 leukemia
# A498 renal = test system: A498 renal
# A549 NSCLC = test system: A549 NSCLC
# HOP-92 NSCLC = test system: HOP-92 NSCLC
# SR leukemia = test system: SR leukemia
# CCRF-CEM leukemia = test system: CCRF-CEM leukemia
# SNB-19 CNS = test system: SNB-19 CNS
# HL-60(TB) leukemia = test system: HL-60(TB) leukemia
# RXF 393 renal = test system: RXF 393 renal
# IGROV1 ovarian = test system: IGROV1 ovarian
# HCC-2998 colon = test system: HCC-2998 colon
# NCI-H226 lung = test system: NCI-H226 lung
compound,measurement,setting,value
O=C1N[C@@H]2[C@@H](O)[C@@H](O)[C@H](O)C[C@H]2c2cc3c(c(O)c21)OCO3,GI50,HT29 colon,119 nM
same,TGI,HT29 colon,1050 nM
same,GI50,MALME-3M melanoma,128 nM
same,TGI,MALME-3M melanoma,537 nM
same,GI50,DU-145 prostate,90.7 nM
same,TGI,DU-145 prostate,647 nM
same,GI50,T-47D breast,79.9 nM
same,TGI,T-47D breast,2120 nM
same,GI50,UACC-257 melanoma,131 nM
same,TGI,UACC-257 melanoma,894 nM
same,GI50,SK-MEL-2 melanoma,98.4 nM
same,TGI,SK-MEL-2 melanoma,415 nM
same,GI50,NCI-H460 lung,83.8 nM
same,TGI,NCI-H460 lung,743 nM
same,GI50,U251 CNS,73.6 nM
same,TGI,U251 CNS,1060 nM
same,GI50,UO-31 renal,147 nM
same,TGI,UO-31 renal,1110 nM
same,GI50,LOX IMVI melanoma,53.6 nM
same,TGI,LOX IMVI melanoma,224 nM
same,GI50,ACHN renal,132 nM
same,TGI,ACHN renal,825 nM
same,GI50,NCI-H522 lung,85.2 nM
same,TGI,NCI-H522 lung,527 nM
same,GI50,786-0 renal,174 nM
same,TGI,786-0 renal,1590 nM
same,GI50,HCT-15 colon,116 nM
same,TGI,HCT-15 colon,1300 nM
same,GI50,OVCAR-3 ovarian,147 nM
same,TGI,OVCAR-3 ovarian,794 nM
same,GI50,M14 melanoma,81.3 nM
same,TGI,M14 melanoma,357 nM
same,GI50,CAKI-1 renal,142 nM
same,TGI,CAKI-1 renal,1160 nM
same,GI50,PC-3 prostate,193 nM
same,TGI,PC-3 prostate,1630 nM
same,GI50,NCI-H23 lung,102 nM
same,TGI,NCI-H23 lung,544 nM
same,GI50,SK-MEL-5 melanoma,84.1 nM
same,TGI,SK-MEL-5 melanoma,344 nM
same,GI50,UACC-62 melanoma,178 nM
same,TGI,UACC-62 melanoma,830 nM
same,GI50,BT-549 breast,206 nM
same,TGI,BT-549 breast,803 nM
same,GI50,TK-10 renal,264 nM
same,TGI,TK-10 renal,1730 nM
same,GI50,SF-268 CNS,144 nM
same,TGI,SF-268 CNS,991 nM
same,GI50,OVCAR-4 ovarian,99.4 nM
same,TGI,OVCAR-4 ovarian,975 nM
same,GI50,KM12 colon,77.8 nM
same,TGI,KM12 colon,584 nM
same,GI50,SN12C renal,93.6 nM
same,TGI,SN12C renal,1030 nM
same,GI50,MOLT-4 leukemia,143 nM
same,TGI,MOLT-4 leukemia,> 100000 nM
same,GI50,SNB-75 CNS,89.8 nM
same,TGI,SNB-75 CNS,861 nM
same,GI50,MDA-MB-231 breast,136 nM
same,TGI,MDA-MB-231 breast,926 nM
same,GI50,SK-OV-3 ovarian,211 nM
same,TGI,SK-OV-3 ovarian,2100 nM
same,GI50,HS 578T breast,113 nM
same,TGI,HS 578T breast,713 nM
same,GI50,SF-539 CNS,101 nM
same,TGI,SF-539 CNS,548 nM
same,GI50,HOP-62 NSCLC,97.7 nM
same,TGI,HOP-62 NSCLC,883 nM
same,GI50,MDA-MB-435,113 nM
same,TGI,MDA-MB-435,648 nM
same,GI50,SW-620 colon,91.8 nM
same,TGI,SW-620 colon,3260 nM
same,GI50,OVCAR-8 ovarian,100 nM
same,TGI,OVCAR-8 ovarian,1390 nM
same,GI50,NCI/ADR-RES ovarian,223 nM
same,TGI,NCI/ADR-RES ovarian,1650 nM
same,GI50,OVCAR-5 ovarian,238 nM
same,TGI,OVCAR-5 ovarian,1610 nM
same,GI50,EKVX NSCLC,193 nM
same,TGI,EKVX NSCLC,1260 nM
same,GI50,HCT-116 colon,66 nM
same,TGI,HCT-116 colon,1070 nM
same,GI50,SF-295 CNS,157 nM
same,TGI,SF-295 CNS,1050 nM
same,GI50,MCF7 breast,65.6 nM
same,TGI,MCF7 breast,881 nM
same,GI50,SK-MEL-28 melanoma,96.5 nM
same,TGI,SK-MEL-28 melanoma,608 nM
same,GI50,RPMI-8226 leukemia,169 nM
same,TGI,RPMI-8226 leukemia,687 nM
same,GI50,K-562 leukemia,83.4 nM
same,TGI,K-562 leukemia,> 100000 nM
same,GI50,A498 renal,200 nM
same,TGI,A498 renal,541 nM
same,GI50,A549 NSCLC,185 nM
same,TGI,A549 NSCLC,2230 nM
same,GI50,HOP-92 NSCLC,86.8 nM
same,TGI,HOP-92 NSCLC,890 nM
same,GI50,SR leukemia,103 nM
same,TGI,SR leukemia,> 100000 nM
same,GI50,CCRF-CEM leukemia,105 nM
same,GI50,SNB-19 CNS,73.7 nM
same,TGI,SNB-19 CNS,899 nM
same,GI50,HL-60(TB) leukemia,97.3 nM
same,TGI,HL-60(TB) leukemia,472 nM
same,GI50,RXF 393 renal,131 nM
same,TGI,RXF 393 renal,562 nM
same,GI50,IGROV1 ovarian,207 nM
same,TGI,IGROV1 ovarian,1470 nM
same,GI50,HCC-2998 colon,95.7 nM
same,TGI,HCC-2998 colon,418 nM
same,GI50,NCI-H226 lung,128 nM
same,TGI,NCI-H226 lung,699 nM
